Experiments:
[1] = test system: active Cdc42 in p190-BCR-ABL Ba/F3 cells; test: Active GTPase pull-down (GST-PAK-GBD); type: cell-based, murine; conditions: 3 μM
Experimental: (§1) FIG. 13: IODVA1 decreases Rac activation and signaling. (A) Ba/F3 cells expressing p190-BCR-ABL1 were treated with IODVA1 (3 μM) as indicated and levels of active Rac (Rac-GTP) were assessed by pull-down using GST-PAK-GBD, followed by immunoblotting (upper panel) and densitometric quantification (lower panel). (B) Flow-cytometry analysis of pJNK, pS6, p4EBP, pPAK1, and pAKT of Ba/F3 cells expressing Mieg3 empty vector (light and dark blue) or p190-BCR-ABL1 (light and dark salmon) and treated with vehicle control or IODVA1 (3 μM) for 30 min. (C) Representative histogram data of the cell cycle analysis of Ba/F3 cells expressing p190-BCR-ABL and treated with vehicle control or IODVA1 (1, 3, and 10 μM) for 20 h. (D) Quantification of the average number of colonies of bone marrow wild-type (black) and Rac1^Δ/Δ+Rac2^−/− (red) p190-BCR-ABL1 leukemic cells treated with vehicle control or IODVA1 (IO1, 1 μM). ns—not significant, * p<0.05, ** p<0.01, *** p<0.001. (E) As in FIG. 13A, but cells were incubated for a fixed amount of time (1 h) at the indicated IODVA1 concentrations. (F) Ba/F3 cells expressing p190-BCR-ABL1 were treated with IODVA1 (3 μM) and lysed at the indicated times. Cell lysates were separated on SDS-PAGE and immunoblotted for pPAK(T423), pBAD(S136), and BAD. (G) Ba/F3 cells expressing p190-BCR-ABL1 were treated with IODVA1 (3 μM) and levels of active Cdc42 (Cdc42-GTP) and Rho (Rho-GTP) were assessed by pull-down at the indicated times using GST-PAK-GBD and GST-Rhotekin respectively, followed by immunoblotting (left panel) and densitometric quantification (right panel). (H) Morphology of GFP^+ leukemic colonies (left panel). […]
(§2) Having shown that IODVA1 prevents formation of F-actin suprastructures, such as lamellipodia and circular dorsal ruffles, within minutes of cell incubation (FIGS. 5A-5B and Gasilina et al., 2020) we focused on Rac. […] We thus tested if IODVA1 inhibits Rac activation and measured levels of Rac-GTP during treatment using PAK-GBD (GTPase-binding domain). […]

[2] = test system: active Rac (Rac-GTP) in p190-BCR-ABL Ba/F3 cells; test: Active GTPase pull-down (GST-PAK-GBD); type: cell-based, murine
Experimental: as §1, §2

[3] = test system: MDA-MB-231 cells expressing shVav3; test: Viability and proliferation, trypan blue exclusion; type: cell-based, human; conditions: 0.1-1 μM
Experimental: FIG. 16: IODVA1 decreases levels of pVav3 in in vitro and in vivo models of triple negative breast cancer. (A) Immunoblot and quantification of Vav3 protein in lysates of MDA-MB-231 triple negative breast cancer cells stably expressing scrambled or Vav3-targeting shRNAs. Viability of the MDA-MB-231 cells stably expressing shVav3 in the presence of IODVA1 (0-1 μM). Cells were grown in the presence of IODVA1 and counted by trypan blue exclusion at the indicated time points. (B) MDA-MB-231 cells were incubated with IODVA1 (3 μM) for 15 min and the levels of phosphorylated Vav3 (pY173) were assessed by immunoblotting. (C) Immunohistochemical staining of phosphorylated Vav3 in tissue derived from MDA-MB-231 xenografts treated with vehicle control or IODVA1.
Next, we tested if IODVA1 is effective in another model of Vav3-dependent cancer. We chose MDA-MB-231 triple negative breast cancer cells because these cells express high endogenous levels of Vav3 (Chen, 2015) and because Vav3 is an acknowledged target in breast cancer (Chen, 2015; Lee, 2008; Aguilar, 2014; Citterio, 2012; Lorenzo-Martin. 2019). […] Second, we incubated MDA-MB-231 cells with IODVA1 (3 μM) for 15 min and analyzed the levels of phosphorylated Vav3 (pY173) by immunoblotting. […]

SMILES: OC1(c2ccccn2)N=C(Nc2nc3ccccc3[nH]2)N=C1c1ccccn1 (stereo not shown) [IODVA1, (Z)-2-((1H-benzo[d]imidazol-2-yl)imino)-4,5-di(pyridin-2-yl)-2,5-dihydro-1H-imidazol-5-ol]
- effect on active Cdc42 [1]: less effective
- decrease in the levels of active Rac ([2]; 3 μM, 10-15 minutes post incubation): 70%
- IC50 ([2]; Mus musculus, BaF3, 1 h, read-out: IC50, Rac activation): 1 µM
- viability and proliferation [3]: no effect

Reference: US11564913B2, “Compositions and methods for treating cancer” (Children's Hospital Medical Center, priority 2019, dated 2023)
